Assay results: patent publication US5935829A, “Mutation assays involving blood cells that metabolize toxic substances” (priority 1992, dated 1999)
Like-named read-outs stand apart in the source and are kept apart here.

Legend:
AHH-1 cells [1] = tested on: AHH-1 cells
in vitro = conditions: human, ahh-1 cells, RELATIVE SURVIVAL; for viability at 48 h, 25 µM: 25 μM × 48 hours; for viability at 48 h, 50 µM: 50 μM × 48 hours; for viability at 48 h, 100 µM: 100 μM × 48 hours
wild type AHH-1 cells = assay: Plating efficiency of wild type cells with 6-TG; format: cell-based, human
[2] = tested on: 6-TG resistant AHH-1 clones; assay: Plating efficiency of clones resistant to 6-TG; format: cell-based, human; conditions: for Plating Efficiency with 6-TG & 2000 c/w: with 2000 wild type cells per well
[3] = tested on: 6-TG resistant AHH-1 cells
AHH-1 cells [4] = assay: Cell clumping at concentrations of 6-TG in microtiter wells; format: cell-based, human
Method: When applied at relatively high concentrations to a colony of cells, 6-thioguanine (6-TG) causes the cells to clump together, rendering it difficult or impossible for live mutant cells to survive and create colonies. […] […]. Subsequent routine work was done using 0.5 μg/ml of 6-TG.

[5] = tested on: AHH activity of AHH-1 cells; format: cell-based, human
Method: The quantity of 3-hydroxy BaP was measured by fluorescent intensity activated by a light wavelength of 396 nm and measured at 522 nm using a spectrofluorimeter (Farrand Model Mk-1, Valhalla, N.Y.).
After growth of the cells in culture medium with gentamycin and kanamycin, the cells were plated in microtiter plates at a density of about 0.2 cells per well. Colonies were isolated and characterized for BaP-induced growth inhibition. A total of 47 colonies were isolated and contacted with 40 uM BaP. In its normal state, BaP is not highly cytotoxic or mutagenic; however, if metabolized by oxidative activity into one or more epoxides or phenols, the metabolites tend to be toxic and mutagenic.
6-TG resistant clones were characterized for AHH activity by measuring the rate of production of 3-OH benzopyrene, a fluorescent metabolite of BaP which is created by AHH activity.

[6] = 25 μM × 48 hours, induction none
[7] = 50 μM × 48 hours, induction none
[8] = 100 μM × 48 hours, induction none
[9] = 75 μM × 48 hours, induction none
[10] = 1 μM × 48 hours, induction CEPE
[11] = 3 μM × 48 hours, induction CEPE
[12] = 10 μM × 48 hours, induction CEPE
[13] = 25 μM × 4.8 hours, induction CEPE

## Cc1cccc2c1ccc1ccccc12 [1MP, 1-methylphenanthrene]
AHH-1 cells [1]; 25 μM × 48 hours, induction BNF
  MUTANT FRACTION × 10^6, MEAN ± STD.DEV.: 3.6 ± 1.2 × 10^6
AHH-1 cells [1]; [6]
  MUTANT FRACTION × 10^6, MEAN ± STD.DEV.: 4.4 ± 1.2 × 10^6
AHH-1 cells [1]; 50 μM × 48 hours, induction BNF
  MUTANT FRACTION × 10^6, MEAN ± STD.DEV.: 8.9 ± 1.5 × 10^6
AHH-1 cells [1]; [7]
  MUTANT FRACTION × 10^6, MEAN ± STD.DEV.: 4.1 ± 1.2 × 10^6
AHH-1 cells [1]; 100 μM × 48 hours, induction BNF
  MUTANT FRACTION × 10^6, MEAN ± STD.DEV.: 7.8 ± 1.4 × 10^6
AHH-1 cells [1]; [8]
  MUTANT FRACTION × 10^6, MEAN ± STD.DEV.: 7.8 ± 1.1 × 10^6
In vitro; induction BNF
  viability at 48 h, 25 µM: 47%
  viability at 48 h, 50 µM: 35%
  viability at 48 h, 100 µM: 29%
In vitro; induction none
  viability at 48 h, 25 µM: 54%
  viability at 48 h, 50 µM: 38%
  viability at 48 h, 100 µM: 31%

## CC(=O)Nc1ccc2c(c1)Cc1ccccc1-2 [2AAF, 2-acetoaminofluorene]
AHH-1 cells [1]; [6]
  MUTANT FRACTION × 10^6, MEAN ± STD.DEV.: 4.8 ± 1.2 × 10^6
AHH-1 cells [1]; [7]
  MUTANT FRACTION × 10^6, MEAN ± STD.DEV.: 3.8 ± 1.1 × 10^6
AHH-1 cells [1]; [9]
  MUTANT FRACTION × 10^6, MEAN ± STD.DEV.: 6.9 ± 1.7 × 10^6
AHH-1 cells [1]; [8]
  MUTANT FRACTION × 10^6, MEAN ± STD.DEV.: 7.7 ± 0.7 × 10^6
In vitro; induction none
  viability at 48 h, 25 µM: 73%
  viability at 48 h, 50 µM: 50%
  viability at 48 h, 100 µM: 33%
In vitro; [9]
  viability at 48 h, 75 µM: 37%

## Nc1nc2nc[nH]c2c(=S)[nH]1 [6-TG, 6-thioguanine]
Wild type AHH-1 cells
  Plating Efficiency in 5 μg/ml 6-TG at 2 cells/well: < 10^-3
Wild type AHH-1 cells; 2000 c/w
  Plating Efficiency with 6-TG & 2000 c/w: 10^-5
[2]; clone BP-3
  Plating Efficiency in 5 μg/ml 6-TG at 2 cells/well: 0.24
  Plating Efficiency with 6-TG & 2000 c/w: 0.23
[2]; clone BP-4
  Plating Efficiency in 5 μg/ml 6-TG at 2 cells/well: 0.34
  Plating Efficiency with 6-TG & 2000 c/w: 0.34
[2]; clone BP-5
  Plating Efficiency in 5 μg/ml 6-TG at 2 cells/well: 0.21
  Plating Efficiency with 6-TG & 2000 c/w: 0.20
[2]; clone BP-6
  Plating Efficiency in 5 μg/ml 6-TG at 2 cells/well: 0.26
  Plating Efficiency with 6-TG & 2000 c/w: 0.34
[2]; clone BP-7
  Plating Efficiency in 5 μg/ml 6-TG at 2 cells/well: 0.06
  Plating Efficiency with 6-TG & 2000 c/w: 0.07
[3]; 6-TG resistant mutant AHH-1 population, up to 5 μg/ml, about two cells per well
  sensitivity to toxic effects of 6-TG: not sensitive
[3]; seven 6-TG resistant clones
  growth rates with and without 6-TG: comparable growth rates
AHH-1 cells [4]; 0.5 μg/ml 6-TG
  cells per microtiter well that could be assayed: ≥ 20,000 cells per microtiter well
AHH-1 cells [4]; 5 μg/ml 6-TG
  cells per microtiter well that could be assayed without clumping: about 2,000 cells per microtiter well

## C1=Cc2cc3cccc4ccc5ccc1c2c5c43 [CEPE, cyclopenteno(c,d)pyrene]
AHH-1 cells [1]; [10]
  MUTANT FRACTION × 10^6, MEAN ± STD.DEV.: 71 ± 6 × 10^6
AHH-1 cells [1]; [11]
  MUTANT FRACTION × 10^6, MEAN ± STD.DEV.: 78 ± 9 × 10^6
AHH-1 cells [1]; [12]
  MUTANT FRACTION × 10^6, MEAN ± STD.DEV.: 22 ± 2 × 10^6
AHH-1 cells [1]; [13]
  MUTANT FRACTION × 10^6, MEAN ± STD.DEV.: 34 ± 4 × 10^6
AHH-1 cells [1]; 25 μM × 48 hours, induction CEPE & BNF
  MUTANT FRACTION × 10^6, MEAN ± STD.DEV.: 74 ± 7 × 10^6
AHH-1 cells [1]; 50 μM × 48 hours, induction CEPE & BNF
  MUTANT FRACTION × 10^6, MEAN ± STD.DEV.: 64 ± 7 × 10^6
[5]
  induction of AHH activity: inducers
In vitro; [10]
  viability at 48 h, 1 µM: 61%
In vitro; [11]
  viability at 48 h, 3 µM: 63%
In vitro; [12]
  viability at 48 h, 10 µM: 59%
In vitro; [13]
  viability at 4.8 h, 25 µM: 54%
In vitro; induction CEPE & BNF
  viability at 48 h, 25 µM: 34%
  viability at 48 h, 50 µM: 27%
